Patent US20170007644A1, “A METHOD OF TREATING NEOPLASIA” (FUWAN PTY LTD, priority 2013, published 2017)

Tested on: A549-GFP cells (A549/lung cancer cells)
Assay: Proliferation assay (fluorescence intensity) of A549-GFP cells treated with MLPC and/or doxorubicin
Assay type: cell-based, human
Details: doxorubicin alone 0.8 μM or 4 μM, 72 hours, FIG. 7
Experimental: Single cell suspensions of A549-GFP, A549-LG, and SKOV3-LG were obtained after trypsinization of the monolayer cultures and counted by trypan blue exclusion. In brief, the cells were seeded at various densities of 1000, 2000, 4000, 5000, 6000, and 10.000 cells into black microliter plates (Nunc) and incubated in 200 microliter culture medium for 3 days. Then the supernatant of cell culture were replaced by 100 microliter Dulbecco's Phosphate buffered saline (DPBS). The fluorescence intensity was determined by excitation and emission on fluorescent microplate reader (BMG).
Single cell suspensions of A549-GFP and SKOV3-LG were obtained by trypsinization of the monolayer cultures and counted by trypan blue exclusion. The proliferation of cancer cells, in particular the downregulation of proliferation, was evaluated by individual, simultaneous, two-stage models. MLPC and a chemotherapeutic drug were added simultaneously to A549-GFP and SKOV3-LG cells for 3 days. In a two-stage experiment, in the first stage MLPC were added to A549-GFP and SKOV3-LG cells for 3 days. In the second stage, supernatants of cells were removed and a chemotherapeutic drug was added for 3 days. […] Fluorescence intensities were determined to evaluate the effect on cancer cell proliferation of the various treatments and control.

COc1cccc2c1C(=O)c1c(O)c3c(c(O)c1C2=O)C[C@@](O)(C(=O)CO)C[C@@H]3O[C@H]1C[C@H](N)[C@H](O)[C@H](C)O1 [doxorubicin]
cancer cell proliferation (relative fluorescence intensity): significantly reduced cancer cell proliferation
